Measured values from patent US10376520B2, “Methods for the treatment of cardiovascular disorders” (Galapagos NV, priority 2015, dated 2019).

System: RA patients
Assay: LDL determination, Study 1 (RA patients, add-on to MTX)
Format: in vivo, human
Conditions: for [LDL] Mean CFB / [LDL] Median CFB: Study 1 12 weeks results
Description: Double-blind, placebo-controlled add on study in subjects with moderately to severely active RA who have an inadequate response to methotrexate (MTX) (oral or parenteral).
595 subjects randomized to one of 6 dose regimens of Compound 1 (dosed as a [Compound 1:HCl:3H2O]) (3 dose levels administered either once or twice daily) or placebo on top of each subject's stable dose of MTX.
Compound 1 (dosed as a [Compound 1:HCl:3H2O]) is dosed for twelve weeks once daily (q.d.) (50 mg, 100 mg or 200 mg) or twice daily (b.i.d.) (25 mg, 50 mg or 100 mg); or placebo.
At Week 12, the subjects on placebo who have not achieved 20% improvement in swollen joint count (SJC66) and tender joint count (TJC68) are re-randomized automatically to receive Compound 1 (dosed as a [Compound 1:HCl:3H2O]) either at 100 mg q.d. or 50 mg b.i.d. doses in a blinded fashion; subjects on 50 mg q.d. who have not achieved 20% improvement in SJC66 and TJC68 will be assigned to 100 mg q.d. and subjects on 25 mg b.i.d. that have not achieved a 20% improvement in SJC66 and TJC68 will be assigned to 50 mg b.i.d. Subjects who switch treatment at week 12 are handled as if they discontinued at week 12 for the purpose of statistical analysis, whereas subjects in the other groups will maintain their randomized treatment until Week 24.
The determination of [LDL]-cholesterol is made using an automated method taking advantage of the selective micellary solubilization of [LDL]-cholesterol by a nonionic detergent and the interaction of a sugar compound and lipoproteins (VLDL and chylomicrons).
When a detergent is included in the enzymatic method for cholesterol determination (cholesterol esterase, cholesterol oxidase coupling reaction), the relative reactivities of cholesterol in the lipoprotein fractions increase in this order: [HDL]<chylomicrons <VLDL <[LDL]. In the presence of Mg^2+, a sugar compound markedly reduces the enzymatic reaction of the cholesterol measurement in VLDL and chylomicrons. The combination of a sugar compound with detergent enables the selective determination of [LDL]-cholesterol in serum. (Friedewald et al., 1972; Rifai et al., 1992)
Homogeneous enzymatic colorimetric assay.
In the presence of peroxidase, the hydrogen peroxide generated reacts with 4-aminoantipyrine and Sodium N-(2-hydroxy-3-sulfopropyl)-3,5-dimethoxyaniline (HSDA) to form a purple-blue dye.
The color intensity of this dye is directly proportional to the cholesterol concentration and is measured photometrically.
Human serum and plasma samples [LDL] determination was done on a Roche/Hitachi Cobas c 701/702 system which automatically calculate the analyte concentration of each sample. Samples containing precipitates are centrifuged before performing the assay.

What does the source list for `O=C(Nc1nc2cccc(-c3ccc(CN4CCS(=O)(=O)CC4)cc3)n2n1)C1CC1` [Compound 1, cyclopropanecarboxylic acid {5-[4-(1,1-dioxo-thiomorpholin-4-ylmethyl)-phenyl]-[1,2,4]triazolo[1,5-a]pyridin-2yl}-amide]?
[LDL] Mean percentage CFB - 24 weeks results (25 mg b.i.d continued over 24 weeks, week 1): 2.79%; [LDL] Mean percentage CFB - 24 weeks results (25 mg b.i.d continued over 24 weeks, week 2): 3.88%; [LDL] Mean percentage CFB - 24 weeks results (25 mg b.i.d continued over 24 weeks, week 4): 4.15%; [LDL] Mean percentage CFB - 24 weeks results (25 mg b.i.d continued over 24 weeks, week 8): 3.83%; [LDL] Mean percentage CFB - 24 weeks results (25 mg b.i.d continued over 24 weeks, week 12): 7.21%; [LDL] Mean percentage CFB - 24 weeks results (25 mg b.i.d continued over 24 weeks, week 16): 6.54%; [LDL] Mean percentage CFB - 24 weeks results (25 mg b.i.d continued over 24 weeks, week 20): 7.42%; [LDL] Mean percentage CFB - 24 weeks results (25 mg b.i.d continued over 24 weeks, week 24): 8.14%; [LDL] Mean percentage CFB - 24 weeks results (50 mg b.i.d. continued over 24 weeks, week 1): 4.19%; [LDL] Mean percentage CFB - 24 weeks results (50 mg b.i.d. continued over 24 weeks, week 2): 3.43%; [LDL] Mean percentage CFB - 24 weeks results (50 mg b.i.d. continued over 24 weeks, week 4): 7.11%; [LDL] Mean percentage CFB - 24 weeks results (50 mg b.i.d. continued over 24 weeks, week 8): 4.75%; [LDL] Mean percentage CFB - 24 weeks results (50 mg b.i.d. continued over 24 weeks, week 12): 2.33%; [LDL] Mean percentage CFB - 24 weeks results (50 mg b.i.d. continued over 24 weeks, week 16): 5.78%; [LDL] Mean percentage CFB - 24 weeks results (50 mg b.i.d. continued over 24 weeks, week 20): 7.08%; [LDL] Mean percentage CFB - 24 weeks results (50 mg b.i.d. continued over 24 weeks, week 24): 8.29%; [LDL] Mean percentage CFB - 12 weeks results (50 mg q.d. (N = 82), week 1): 0%; [LDL] Mean percentage CFB - 12 weeks results (50 mg q.d. (N = 82), week 2): 1%; [LDL] Mean percentage CFB - 12 weeks results (50 mg q.d. (N = 82), week 4): 0%; [LDL] Mean percentage CFB - 12 weeks results (50 mg q.d. (N = 82), week 8): 3%; [LDL] Mean percentage CFB - 12 weeks results (50 mg q.d. (N = 82), week 12): 6%; [LDL] Mean percentage CFB - 24 weeks results (50 mg q.d. continued over 24 weeks, week 1): 0.26%; [LDL] Mean percentage CFB - 24 weeks results (50 mg q.d. continued over 24 weeks, week 2): −0.24%; [LDL] Mean percentage CFB - 24 weeks results (50 mg q.d. continued over 24 weeks, week 4): 0.35%; [LDL] Mean percentage CFB - 24 weeks results (50 mg q.d. continued over 24 weeks, week 8): 3.58%; [LDL] Mean percentage CFB - 24 weeks results (50 mg q.d. continued over 24 weeks, week 12): 6.67%; [LDL] Mean percentage CFB - 24 weeks results (50 mg q.d. continued over 24 weeks, week 16): 6.70%; [LDL] Mean percentage CFB - 24 weeks results (50 mg q.d. continued over 24 weeks, week 20): 6.29%; [LDL] Mean percentage CFB - 24 weeks results (50 mg q.d. continued over 24 weeks, week 24): 6.05%; [LDL] Mean percentage CFB - 24 weeks results (100 mg b.i.d. continued over 24 weeks, week 1): 8.14%; [LDL] Mean percentage CFB - 24 weeks results (100 mg b.i.d. continued over 24 weeks, week 4): 7.69%; [LDL] Mean percentage CFB - 24 weeks results (100 mg b.i.d. continued over 24 weeks, week 8): 13.14%; [LDL] Mean percentage CFB - 24 weeks results (100 mg b.i.d. continued over 24 weeks, week 12): 11.86%; [LDL] Mean percentage CFB - 24 weeks results (100 mg b.i.d. continued over 24 weeks, week 16): 9.44%; [LDL] Mean percentage CFB - 24 weeks results (100 mg b.i.d. continued over 24 weeks, week 20): 7.71%; [LDL] Mean percentage CFB - 24 weeks results (100 mg b.i.d. continued over 24 weeks, week 24): 12.88%; [LDL] Mean percentage CFB - 12 weeks results (100 mg q.d. (N = 85), week 1): 5%; [LDL] Mean percentage CFB - 12 weeks results (100 mg q.d. (N = 85), week 2): 2%; [LDL] Mean percentage CFB - 12 weeks results (100 mg q.d. (N = 85), week 4): 5%; [LDL] Mean percentage CFB - 12 weeks results (100 mg q.d. (N = 85), week 8): 4%; [LDL] Mean percentage CFB - 12 weeks results (100 mg q.d. (N = 85), week 12): 6%; [LDL] Mean percentage CFB - 24 weeks results (100 mg q.d. continued over 24 weeks, week 1): 5.08%; [LDL] Mean percentage CFB - 24 weeks results (100 mg q.d. continued over 24 weeks, week 2): 1.97%; [LDL] Mean percentage CFB - 24 weeks results (100 mg q.d. continued over 24 weeks, week 4): 5.31%; [LDL] Mean percentage CFB - 24 weeks results (100 mg q.d. continued over 24 weeks, week 8): 3.51%; [LDL] Mean percentage CFB - 24 weeks results (100 mg q.d. continued over 24 weeks, week 12): 5.69%; [LDL] Mean percentage CFB - 24 weeks results (100 mg q.d. continued over 24 weeks, week 16): 0.89%; [LDL] Mean percentage CFB - 24 weeks results (100 mg q.d. continued over 24 weeks, week 20): 1.19%; [LDL] Mean percentage CFB - 24 weeks results (100 mg q.d. continued over 24 weeks, week 24): 2.66%; [LDL] Mean percentage CFB - 12 weeks results (200 mg q.d. (N = 86), week 1): 6%; [LDL] Mean percentage CFB - 12 weeks results (200 mg q.d. (N = 86), week 2): 6%; [LDL] Mean percentage CFB - 12 weeks results (200 mg q.d. (N = 86), week 4): 6%; [LDL] Mean percentage CFB - 12 weeks results (200 mg q.d. (N = 86), week 8): 8%; [LDL] Mean percentage CFB - 12 weeks results (200 mg q.d. (N = 86), week 12): 8%; [LDL] Mean percentage CFB - 24 weeks results (200 mg q.d. continued over 24 weeks, week 1): 6.34%; [LDL] Mean percentage CFB - 24 weeks results (200 mg q.d. continued over 24 weeks, week 2): 5.81%; [LDL] Mean percentage CFB - 24 weeks results (200 mg q.d. continued over 24 weeks, week 4): 5.97%; [LDL] Mean percentage CFB - 24 weeks results (200 mg q.d. continued over 24 weeks, week 8): 7.93%; [LDL] Mean percentage CFB - 24 weeks results (200 mg q.d. continued over 24 weeks, week 12): 7.96%; [LDL] Mean percentage CFB - 24 weeks results (200 mg q.d. continued over 24 weeks, week 16): 7.99%; [LDL] Mean percentage CFB - 24 weeks results (200 mg q.d. continued over 24 weeks, week 20): 8.85%; [LDL] Mean percentage CFB - 24 weeks results (200 mg q.d. continued over 24 weeks, week 24): 7.78%; [LDL] Mean percentage CFB - 12 weeks results (2 x 25 mg b.i.d. (N = 86), week 1): 3%; [LDL] Mean percentage CFB - 12 weeks results (2 x 25 mg b.i.d. (N = 86), week 2): 4%; [LDL] Mean percentage CFB - 12 weeks results (2 x 25 mg b.i.d. (N = 86), week 4): 3%; [LDL] Mean percentage CFB - 12 weeks results (2 x 25 mg b.i.d. (N = 86), week 8): 2%; [LDL] Mean percentage CFB - 12 weeks results (2 x 25 mg b.i.d. (N = 86), week 12): 6%; [LDL] Mean percentage CFB - 12 weeks results (2 x 50 mg b.i.d. (N = 85), week 1): 4%; [LDL] Mean percentage CFB - 12 weeks results (2 x 50 mg b.i.d. (N = 85), week 2): 3%; [LDL] Mean percentage CFB - 12 weeks results (2 x 50 mg b.i.d. (N = 85), week 4): 7%; [LDL] Mean percentage CFB - 12 weeks results (2 x 50 mg b.i.d. (N = 85), week 8): 5%; [LDL] Mean percentage CFB - 12 weeks results (2 x 50 mg b.i.d. (N = 85), week 12): 2%; [LDL] Mean percentage CFB - 12 weeks results (2 x 100 mg b.i.d. (N = 84), week 1): 8%; [LDL] Mean percentage CFB - 12 weeks results (2 x 100 mg b.i.d. (N = 84), week 2): 6%; [LDL] Mean percentage CFB - 12 weeks results (2 x 100 mg b.i.d. (N = 84), week 4): 8%; [LDL] Mean percentage CFB - 12 weeks results (2 x 100 mg b.i.d. (N = 84), week 8): 13%; [LDL] Mean percentage CFB - 12 weeks results (2 x 100 mg b.i.d. (N = 84), week 12): 12%; [LDL] Mean CFB (50 mg q.d., week 1): -0.01 mmol/L; [LDL] Median CFB (50 mg q.d., week 1): -0.01 mmol/L; [LDL] Mean CFB (50 mg q.d., week 2): 0.02 mmol/L; [LDL] Median CFB (50 mg q.d., week 2): 0.02 mmol/L; [LDL] Mean CFB (50 mg q.d., week 4): 0.01 mmol/L; [LDL] Median CFB (50 mg q.d., week 4): -0.01 mmol/L; [LDL] Mean CFB (50 mg q.d., week 8): 0.06 mmol/L; [LDL] Median CFB (50 mg q.d., week 8): 0.07 mmol/L; [LDL] Mean CFB (50 mg q.d., week 12): 0.14 mmol/L; [LDL] Median CFB (50 mg q.d., week 12): 0.13 mmol/L; [LDL] Mean CFB (100 mg q.d., week 1): 0.11 mmol/L; [LDL] Median CFB (100 mg q.d., week 1): 0.1 mmol/L; [LDL] Mean CFB (100 mg q.d., week 2): 0.01 mmol/L; [LDL] Median CFB (100 mg q.d., week 2): 0.02 mmol/L; [LDL] Mean CFB (100 mg q.d., week 4): 0.13 mmol/L; [LDL] Median CFB (100 mg q.d., week 4): 0.13 mmol/L; [LDL] Mean CFB (100 mg q.d., week 8): 0.03 mmol/L; [LDL] Median CFB (100 mg q.d., week 8): 0.05 mmol/L; [LDL] Mean CFB (100 mg q.d., week 12): 0.13 mmol/L; [LDL] Median CFB (100 mg q.d., week 12): 0.13 mmol/L; [LDL] Mean CFB (200 mg q.d., week 1): 0.16 mmol/L; [LDL] Median CFB (200 mg q.d., week 1): 0.16 mmol/L
